Laboratory results reported in the NIST ThermoML archive (doi:10.1021/je200851a).
± gives the expanded uncertainty stated by the source.

Experiment: excess molar enthalpy (molar enthalpy of mixing); xn = mol fraction of the nth substance listed
Settings: 298.15 K, 101 kPa, Liquid, Calvet calorimetry

Work on `CCCCCCCCC` [nonane] + CCO yielded an excess molar enthalpy (x2 = 0.0507) of 0.087 ± 0.00191 kcal/mol, an excess molar enthalpy (x2 = 0.1378) of 0.132 ± 0.00287 kcal/mol and an excess molar enthalpy (x2 = 0.2453) of 0.156 ± 0.00335 kcal/mol. The excess molar enthalpy (x2 = 0.4164) was 0.168 ± 0.00359 kcal/mol, the excess molar enthalpy (x2 = 0.5022) was 0.162 ± 0.00359 kcal/mol and the excess molar enthalpy (x2 = 0.586) was 0.156 ± 0.00335 kcal/mol. The excess molar enthalpy (x2 = 0.6518) was 0.151 ± 0.00335 kcal/mol, the excess molar enthalpy (x2 = 0.6895) was 0.143 ± 0.00311 kcal/mol and the excess molar enthalpy (x2 = 0.749) was 0.13 ± 0.00287 kcal/mol. It also gave an excess molar enthalpy (x2 = 0.7877) of 0.12 ± 0.00263 kcal/mol, an excess molar enthalpy (x2 = 0.8433) of 0.1 ± 0.00215 kcal/mol and an excess molar enthalpy (x2 = 0.8715) of 0.0899 ± 0.00191 kcal/mol. It also gave an excess molar enthalpy (x2 = 0.9065) of 0.0715 ± 0.00167 kcal/mol, an excess molar enthalpy (x2 = 0.9296) of 0.0574 ± 0.0012 kcal/mol and an excess molar enthalpy (x2 = 0.9562) of 0.0387 ± 0.000956 kcal/mol.
